# Data as given in patent US20210205291A1, “NITROGENOUS HETEROCYCLIC AMIDE DERIVATIVE, PREPARATION METHOD THEREOF, AND PHARMACEUTICAL APPLICATION” (Sichuan Haisco Pharmaceutical Co., Ltd., priority 2016, published 2021).
# What was measured:
# [1] = molecular target: human muscarine receptor M3 (Homo sapiens, UniProt P20309); assay: Inhibitory activity against human muscarine receptor M3 (aequorin luminescence in CHO cells, acetylcholine challenge); format: cell-based; conditions: CHO cells expressing hM3 and apo-Aequorin; acetylcholine chloride 112.92 nM
# Chain of human muscarine receptor M3 (P20309 whole entry): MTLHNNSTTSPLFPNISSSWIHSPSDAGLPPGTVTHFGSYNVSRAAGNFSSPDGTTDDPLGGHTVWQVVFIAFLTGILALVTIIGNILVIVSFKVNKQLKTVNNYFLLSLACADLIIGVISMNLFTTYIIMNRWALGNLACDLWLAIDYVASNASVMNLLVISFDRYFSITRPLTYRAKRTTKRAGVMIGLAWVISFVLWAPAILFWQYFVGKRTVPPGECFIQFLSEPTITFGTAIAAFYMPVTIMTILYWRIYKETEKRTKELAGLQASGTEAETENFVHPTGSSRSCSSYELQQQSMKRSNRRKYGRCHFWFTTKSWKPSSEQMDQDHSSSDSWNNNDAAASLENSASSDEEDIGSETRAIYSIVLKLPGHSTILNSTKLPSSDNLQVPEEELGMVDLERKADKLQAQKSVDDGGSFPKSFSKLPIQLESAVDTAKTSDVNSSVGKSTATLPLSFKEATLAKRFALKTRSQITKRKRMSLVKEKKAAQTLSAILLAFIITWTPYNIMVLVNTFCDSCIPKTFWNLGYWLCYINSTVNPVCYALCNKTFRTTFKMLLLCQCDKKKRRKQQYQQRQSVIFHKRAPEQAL
# Method: CHO cells (PerkinElmer, ES-212-AF) that stably express human muscarine receptor 3 (hM3) and apo-Aequorin were cultured at 37° C. 5% CO2 in Ham's F12 media (Invitrogen 12500-062) containing 10% fetal bovine serum (FBS) (Gibico 10099-141), 400 μg/mL G418 (sigma G5013) and 250 μg/mL Zeocin (Invivogen ant-zn-5p), until a confluency of 90% to 100% was reached. Cells were separated by rinsing with PBS/5 mM EDTA, collected by centrifugation, re-suspended in phenol red-free Ham's F12 media (Invitrogen 12500-062) containing 0.1% BSA (BOVOGEN BSAS 100), and counted. The cell concentration was adjusted to 1×10^6 cells/ml. 15 ml of the cell suspension was added to a 50-ml centrifuge tube, to which Coelenterazine-h (Promega S2011) was added to a final concentration of 5 μM. The tube was wrapped with a tin foil to shade light, and incubated on a rotary shaker at 20° C. for 4 hours. The cells were diluted with a phenol red-free/0.1% BSA Ham's F12 medium to a final concentration of 5.0/10^5 cells/ml, placed on a rotary shaker in low-speed rotation, and incubated at room temperature for at least 1 hour. The compounds of the Examples were formulated with DMSO into 10 mM stock solutions, diluted in series with a phenol red-free/0.1% BSAHam's F12 medium (log(M): −7, −8, −9, −10, −11), and added to a 96-well plate at 50 μl/well. 50 μl cell suspension was further added to each well (25,000 cells/well) and incubated for 15 min at room temperature. The 96-well plate was placed under a microplate reader (Perkin Elmer, Envision), and a 50 μl solution of acetylcholine chloride (Sigma A6625) was added to each well at a concentration of 112.92 nM (hM3) with a microplate reader sample injector. The luminescence was recorded over 20 seconds, and IC50 values were calculated and analyzed by Origin 7.5.
# [2] = molecular target: human β2-adrenergic receptor (Homo sapiens, UniProt P07550); assay: Agonistic activity on human β2-adrenergic receptor (LANCE Ultra cAMP Assay in CHO cells); format: cell-based; conditions: CHO cells expressing hβ2; cAMP TR-FRET
# Chain of human β2-adrenergic receptor (P07550 whole entry): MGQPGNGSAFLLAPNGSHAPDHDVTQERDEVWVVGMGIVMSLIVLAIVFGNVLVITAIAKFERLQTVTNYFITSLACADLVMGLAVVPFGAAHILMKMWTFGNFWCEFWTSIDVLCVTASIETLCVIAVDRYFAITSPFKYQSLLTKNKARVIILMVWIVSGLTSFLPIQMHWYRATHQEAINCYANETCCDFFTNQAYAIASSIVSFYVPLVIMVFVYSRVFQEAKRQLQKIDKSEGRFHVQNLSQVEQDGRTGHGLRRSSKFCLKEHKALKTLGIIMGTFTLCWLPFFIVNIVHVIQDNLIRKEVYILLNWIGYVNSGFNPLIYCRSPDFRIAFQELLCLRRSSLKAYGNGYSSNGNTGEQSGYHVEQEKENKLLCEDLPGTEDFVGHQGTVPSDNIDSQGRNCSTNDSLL
# Method: The agonistic activity of the compounds of the Examples on the human adrenergic receptor was measured by the LANCE Ultra cAMP Assay.
# CHO cells (PerkinElmer, ES-034-AF) that stably express human adrenergic receptor (hβ2) were cultured at 37° C. 5% CO2 in MEM-alpha media (Invitrogen 12561-056) containing 10% fetal bovine serum (FBS) (Gibico 10099-141) and 250 μg/ml Zeocin (InvivoGen ant-zn-5p), until a confluency of 90% to 100% was reached. Then the agonism on cAMP was tested by using a LANCE Ultra cAMP Assay kit (PerkinElmer TRF0263). Cells were separated with PBS/5 mM EDTA, collected by centrifugation, re-suspended in Stimulation Buffer (1×HBSS, 5 mM HEPES, 0.5 mM IBMX, 0.1% BSA, pH=7.4), and adjusted to a cell concentration of 6×10^5 cells/ml. The compounds of the Examples were formulated with DMSO into 10 mM stock solutions, diluted in series with Stimulation Buffer, and added to a 384-well plate at 5 μl/well. 5 μl cell suspension was further added to each well (3,000 cells/well), incubated for 30 min at room temperature, then 5 μl of a 4×Eu-cAMP trace working solution was added to each well, and then 5 μl of a 4×Ulight-anti-cAMP working solution was added to each well, followed by incubation at room temperature for 1 hour. The 384-well plate was detected for TR-FRET under a microplate reader (Perkin Elmer, Envision), and EC50 values were calculated and analyzed by Origin 7.5.
# [3] = tested on: methacholine-induced bronchoconstriction in guinea pigs; assay: Inhibition against methacholine-induced bronchoconstriction in guinea pigs (PenH, whole-body plethysmograph); format: in vivo; conditions: intratracheal, 0.3 nmol per animal, 3 mg/ml methacholine; for PenH Inhibition (%) 4 h: 4 h after administration; for PenH Inhibition (%) 24 h: 24 h after administration
# Method: 8-week-old guinea pigs (all male) were purchased from Vital River Laboratory Animal Technology Co., Ltd., and adapted for 3 days before the experiments were started. The test compounds were formulated into 0.6 mM stock solutions with 83% dry ethanol+17% Tween80, which were diluted 500 times before administration. Before administration, the animals were anesthetized with 5% isoflurane by using a small-animal anesthetic apparatus (Matrx: VME2), wherein the anesthetic duration was 1.5 to 2 min. The anesthetized guinea pigs were fixed on a tracheal cannula platform, and intratracheally administrated with the compounds at 250 μl/animal by using a rat liquid-aerosol administration kit (penn-century; MSA-250-R). 4 hours and 24 hours after administration, the enhanced pauses (PenH) of the guinea pigs were measured in a whole-body plethysmograph (DSI; GS220A12-R7B). 3 mg/ml methacholine (Mch) was administrated by nebulization for 36 sec, and data was recorded over 7 min. The average of PenH was calculated (see J Pharmacol Exp Ther 345:260-270).
# PenH calculation formula: PenH=PEP/PIP*Pause; Pause=(Te−Tr)/Tr
# Te: Duration of expiratory phase (s)
# Tr: Duration of relaxation phase (s)
# PEP: Expiratory peak flow rate (ml/s)
# PIP: Inspiratory peak flow rate (ml/s)
# [4] = Pharmacokinetic evaluation in SD rats; format: in vivo
# Method: 18 male SD rats, eight weeks old, were purchased from Vital River Laboratory Animal Technology Co., Ltd., and adapted for 3 days before the experiments were started. The SD rats were randomized into 3 groups, fasted one day before administration but allowed access to water. The 3 groups of animals were administrated with 1 mg/kg compound either by tail vein injection (iv) or by intratracheal (it) administration. The compounds were formulated into 20 mg/ml stock solutions with 83% ethanol and 17% Tween80. For intravenous injection, 0.1 ml of the stock solution was diluted to the final volume with 9.9 ml physiological saline. For intratracheal administration, 0.25 ml of the stock solution was diluted with 4.75 ml physiological saline to the final volume. For the group for intravenous injection, right before administration (0 h) and 5 min, 15 min, 30 min, 1.0, 2.0, 4.0, 8.0, 24.0 h after administration, 0.1 ml blood was taken from the orbit, heparin was added for anticoagulation, and plasma was separated after centrifugation at 4° C., 3000 rpm for 10 min and stored at −80° C. before testing. For the group for intratracheal administration, right before administration and 5 min, 15 min, 30 min, 1.0, 2.0, 4.0, 8.0, 24.0 h after administration, blood was taken and treated the same way as for the group for intravenous injection. 30 μl plasma of rat at each of the time points was mixed with 200 μl acetonitrile solution containing an internal standard, vortexed for 1 min, and centrifuged at 11300 rpm for 10 min, and 175 μl of the supernatant was added to a 96-well plated for LC-MS/MS analysis. The major pharmacokinetic parameters were analyzed using the software WinNonlin 6.3 at the non-compartment mode.
# [5] = Sprague-Dawley (SD), rat, inhaled or intranasal, male SD rats, it (intratracheal), 1 mg/kg, plasma
# [6] = Sprague-Dawley (SD), rat, male SD rats, iv (tail vein), 1 mg/kg, plasma
SMILES,IC50 [1],EC50 [2],PenH Inhibition (%) 4 h [3],PenH Inhibition (%) 24 h [3],other results
"O=C(Nc1ccccc1-c1ccccc1)OC1CCN(CCC(=O)N2CCC(C(=O)Nc3ccc(CNC[C@H](O)c4ccc(O)c5[nH]c(=O)ccc45)cc3)CC2)CC1 [Compound 1, [1-[3-[4-[[4-[[[(2R)-2-hydroxy-2-(8-hydroxy-2-oxo-1H-quinolin-5-yl)ethyl]amino]methyl]phenyl]carbamoyl]-1-piperidyl]-3-oxo-propyl]-4-piperidyl]N-(2-phenylphenyl)carbamate; ditrifluoroacetic acid]",14.4 nM,–,–,–,–
"O=C(Nc1ccc(CNC[C@H](O)c2ccc(O)c3[nH]c(=O)ccc23)cc1)OCC1CCN(C(=O)CCN2CCC(OC(=O)Nc3ccccc3-c3ccccc3)CC2)CC1 [Compound 2, [1-[3-[4-[(2-phenylphenyl)carbamoyloxy]-1-piperidyl]propanoyl]-4-piperidyl]methyl N-[4-[[[(2R)-2-hydroxy-2-(8-hydroxy-2-oxo-1H-quinolin-5-yl)ethyl]amino]methyl]phenyl]carbamate; ditrifluoroacetic acid]",1.69 nM,1.85 nM,94.8%,53.8%,"AUC(0-inf) [4, 5]: 11.6 ng·h/mL; Cmax [4, 5]: 7.08 ng/mL; Tmax [4, 5]: 34.8 min; half-life [4, 5]: 45 min; AUC(0-inf) [4, 6]: 9.27 ng·h/mL; half-life [4, 6]: 27.6 min; in vivo exposure level ([4]; after iv and it administrations, rats, in words): low in vivo exposure level"
"COc1cc(NC(=O)OCC2CCN(C(=O)CCN3CCC(OC(=O)Nc4ccccc4-c4ccccc4)CC3)CC2)c(Cl)cc1CNC[C@H](O)c1ccc(O)c2[nH]c(=O)ccc12 [Compound 3, [1-[3-[4-[(2-phenylphenyl)carbamoyloxy]-1-piperidyl]propanoyl]-4-piperidyl]methyl N-[2-chloro-4-[[[(2R)-2-hydroxy-2-(8-hydroxy-2-oxo-1H-quinolin-5-yl)ethyl]amino]methyl]-5-methoxy-phenyl]carbamate; di(2,2,2-trifluoroacetic acid)]",3.76 nM,10.2 nM,–,–,–
"COc1cc(NC(=O)OC[C@@H]2CCN(C(=O)CCN3CCC(OC(=O)Nc4ccccc4-c4ccccc4)CC3)C2)c(Cl)cc1CNC[C@H](O)c1ccc(O)c2[nH]c(=O)ccc12 [Compound 4, [(3R)-1-[3-[4-[(2-phenylphenyl)carbamoyloxy]-1-piperidyl]propanoyl]pyrrolidin-3-yl]methyl N-[2-chloro-4-[[[(2R)-2-hydroxy-2-(8-hydroxy-2-oxo-1H-quinolin-5-yl)ethyl]amino]methyl]-5-methoxy-phenyl]carbamate; di(2,2,2-trifluoro)acetic acid]",2.26 nM,–,–,–,–
"COc1cc(NC(=O)OC[C@H]2CCN(C(=O)CCN3CCC(OC(=O)Nc4ccccc4-c4ccccc4)CC3)C2)c(Cl)cc1CNC[C@H](O)c1ccc(O)c2[nH]c(=O)ccc12 [Compound 5, [(3S)-1-[3-[4-[(2-phenylphenyl)carbamoyloxy]-1-piperidyl]propanoyl]pyrrolidin-3-yl]methyl N-[2-chloro-4-[[[(2R)-2-hydroxy-2-(8-hydroxy-2-oxo-1H-quinolin-5-yl)ethyl]amino]methyl]-5-methoxy-phenyl]carbamate; ditrifluoroacetic acid]",0.89 nM,–,96.4%,78.6%,–

# The next lines start with results.
IC50 [1],EC50 [2],SMILES,PenH Inhibition (%) 4 h [3],PenH Inhibition (%) 24 h [3],other results
6.49 nM,17.4 nM,"CN(CCNC[C@H](O)c1ccc(O)c2[nH]c(=O)ccc12)C(=O)C1CCN(C(=O)CCN2CCC(OC(=O)Nc3ccccc3-c3ccccc3)CC2)CC1 [Compound 6, [1-[3-[4-[2-[[(2R)-2-hydroxy-2-(8-hydroxy-2-oxo-1H-quinolin-5-yl)ethyl]amino]ethyl-methyl-carbamoyl]-1-piperidyl]-3-oxo-propyl]-4-piperidyl]N-(2-phenylphenyl)carba mate; ditrifluoroacetic acid]",–,–,–
1.31 nM,6.01 nM,"O=C(Nc1ccc(CNC[C@H](O)c2ccc(O)c3[nH]c(=O)ccc23)cc1F)OCC1CCN(C(=O)CCN2CCC(OC(=O)Nc3ccccc3-c3ccccc3)CC2)CC1 [Compound 7, [1-[3-[4-[(2-phenylphenyl)carbamoyloxy]-1-piperidyl]propanoyl]-4-piperidyl]methyl N-[2-fluoro-4-[[[(2R)-2-hydroxy-2-(8-hydroxy-2-oxo-1H-quinolin-5-yl)ethyl]amino]methyl]phenyl]carbamate; ditrifluoroacetic acid]",72.1%,55.8%,–
3.33 nM,3.34 nM,"O=C(Nc1ccc(CNC[C@H](O)c2ccc(O)c3[nH]c(=O)ccc23)c(F)c1)OCC1CCN(C(=O)CCN2CCC(OC(=O)Nc3ccccc3-c3ccccc3)CC2)CC1 [Compound 8, [1-[3-[4-[(2-phenylphenyl)carbamoyloxy]-1-piperidyl]propanoyl]-4-piperidyl]methyl N-[3-fluoro-4-[[[(2R)-2-hydroxy-2-(8-hydroxy-2-oxo-1H-quinolin-5-yl)ethyl]amino]methyl]phenyl]carbamate; ditrifluoroacetic acid]",78.2%,45.3%,–
3.73 nM,3.96 nM,"O=C(CC1CCN(C(=O)CCN2CCC(OC(=O)Nc3ccccc3-c3ccccc3)CC2)CC1)Nc1ccc(CNC[C@H](O)c2ccc(O)c3[nH]c(=O)ccc23)cc1 [Compound 9, [1-[3-[4-[2-[4-[[[(2R)-2-hydroxy-2-(8-hydroxy-2-oxo-1H-quinolin-5-yl)ethyl]amino]methyl]anilino]-2-oxo-ethyl]-1-piperidyl]-3-oxo-propyl]-4-piperidyl]N-(2-phenylphenyl)carbamate; di(trifluoroacetic acid)]",–,–,–
